We go through 17 compounds from patent publication US9233968B1, “Kinase inhibitors” (Allergan, Inc., priority 2014, dated 2016).

The target in assay [1] is VEGFR2 (cytoplasmic domain KDR protein) (Homo sapiens (Human), UniProt P35968). Briefly: VEGFR2 Kinase Assay (biochemical KDR kinase assay). To be noted: 2.7 μM ATP, poly-Glu-Tyr substrate; read-out: Enzyme VEGFR2 IC50. How it is done: Biochemical KDR kinase assays were performed in 96 well microtiter plates that were coated overnight with 75 μg/well of poly-Glu-Tyr (4:1) in 10 mM Phosphate Buffered Saline (PBS), pH 7.4. The coated plates were washed with 2 mls per well PBS+0.05% Tween-20 (PBS-T), blocked by incubation with PBS containing 1% BSA, then washed with 2 mls per well PBS-T prior to starting the reaction. Reactions were carried out in 100 μL reaction volumes containing 2.7 μM ATP in kinase buffer (50 mM Hepes buffer pH 7.4, 20 mM MgCl2, 0.1 mM MnCl2 and 0.2 mM Na3VO4). […] Reactions were initiated by the addition 20 μl per well of kinase buffer containing 200-300 ng purified cytoplasmic domain KDR protein (BPS Bioscience, San Diego, Calif.). Following a 15 minute incubation at 30° C., the reactions were washed 2 mls per well PBS-T. 100 μl of a monoclonal anti-phosphotyrosine antibody-peroxidase conjugate diluted 1:10,000 in PBS-T was added to the wells for 30 minutes. Following a 2 mls per well wash with PBS-Tween-20, 100 μl of O-Phenylenediamine Dihydrochloride in phosphate-citrate buffer, containing urea hydrogen peroxide, was added to the wells for 7-10 minutes as a colorimetric substrate for the peroxidase. The reaction was terminated by the addition of 100 μl of 2.5N H2SO4 to each well and read using a microplate ELISA reader set at 492 nm. IC50 values for compound inhibition were calculated directly from graphs of optical density (arbitrary units) versus compound concentration following subtraction of blank values.

Assay [2] has as its target PDGFRβ (cytoplasmic domain PDGFR-b protein) (Homo sapiens (Human), UniProt P09619). Briefly: PDGFRβ Kinase Assay. It counts as biochemical. To be noted: 36 μM ATP, poly-Glu-Tyr substrate; read-out: Enzyme PDGFRβ IC50. How it is done: Biochemical PDGFRβ kinase assays were performed in 96 well microtiter plates that were coated overnight with 75 μg of poly-Glu-Tyr (4:1) in 10 mM Phosphate Buffered Saline (PBS), pH 7.4. The coated plates were washed with 2 mls per well PBS+0.05% Tween-20 (PBS-T), blocked by incubation with PBS containing 1% BSA, then washed with 2 mls per well PBS-T prior to starting the reaction. […] Reactions were initiated by the addition 20 μl per well of kinase buffer containing 200-300 ng purified cytoplasmic domain PDGFR-b protein (Millipore). Following a 60 minute incubation at 30° C., the reactions were washed 2 mls per well PBS-T. 100 μl of a monoclonal anti-phosphotyrosine antibody-peroxidase conjugate diluted 1:10,000 in PBS-T was added to the wells for 30 minutes. Following a 2 mls per well wash with PBS-Tween-20, 100 μl of O-Phenylenediamine Dihydrochloride in phosphate-citrate buffer, containing urea hydrogen peroxide, was added to the wells for 7-10 minutes as a colorimetric substrate for the peroxidase. […] IC50 values for compound inhibition were calculated directly from graphs of optical density (arbitrary units) versus compound concentration following subtraction of blank values.

The target of assay [3] is VEGFR2 (Homo sapiens (Human), UniProt P35968). Briefly: VEGFR2 Cellular Assay (FLIPR, VEGF induced intracellular calcium in HUVEC). It counts as cell-based. To be noted: VEGF165 stimulation 10 ng/mL, read-out: Receptor VEGFR2 IC50. The method, then:
(§1) VEGFR2 Cellular Assay Automated FLIPR (Fluorometric Imaging Plate Reader) technology was used to screen for inhibitors of VEGF induced increases in intracellular calcium levels in fluorescent dye loaded endothelial cells. HUVEC (human umbilical vein endothelial cells) (Clonetics) were seeded in 384-well fibronectin coated black-walled plates overnight at 37° C./5% CO2. Cells were loaded with calcium indicator Fluo-4 for 45 minutes at 37° C. Cells were washed 2 times (Elx405, Biotek Instruments) to remove extracellular dye. For screening, cells were pre-incubated with test agents for 30 minutes, at a single concentration (10 μM) or at concentrations ranging from 0.0001 to 10.0 μM followed by VEGF165 stimulation (10 ng/mL). […] Data were generated by determining max-min fluorescence levels for unstimulated, stimulated, and drug treated samples. IC50 values for test compounds were calculated from % inhibition of VEGF stimulated responses in the absence of inhibitor.
On the technique in general: A change in cytosolic calcium serves as a functional read-out for many receptors and channels.

Assay [4] concerns the target PDGFRβ (Homo sapiens (Human), UniProt P09619). The assay is described as follows: PDGFRβ Cellular Assay (FLIPR, PDGF-induced intracellular calcium in NHDF-Ad). The assay is classed as cell-based. To be noted: PDGF-BB stimulation 30 ng/mL, read-out: Receptor PDGFRβ IC50. The method, then:
as §1, with “Automated” for “VEGFR2 Cellular Assay Automated”, “of PDGF-induced” for “of VEGF induced”, “cells. NHDF-Ad (Normal Human Dermal Fibroblasts, Adult; Lonza)” for “cells. HUVEC (human umbilical vein endothelial cells) (Clonetics)”, “by PDGF-BB” for “by VEGF165”, “stimulation (30” for “stimulation (10”, “of PDGF-BB” for “of VEGF”

pIC50: −log10 of the molar value.

VEGFR2, sequence (P35968 20-1356): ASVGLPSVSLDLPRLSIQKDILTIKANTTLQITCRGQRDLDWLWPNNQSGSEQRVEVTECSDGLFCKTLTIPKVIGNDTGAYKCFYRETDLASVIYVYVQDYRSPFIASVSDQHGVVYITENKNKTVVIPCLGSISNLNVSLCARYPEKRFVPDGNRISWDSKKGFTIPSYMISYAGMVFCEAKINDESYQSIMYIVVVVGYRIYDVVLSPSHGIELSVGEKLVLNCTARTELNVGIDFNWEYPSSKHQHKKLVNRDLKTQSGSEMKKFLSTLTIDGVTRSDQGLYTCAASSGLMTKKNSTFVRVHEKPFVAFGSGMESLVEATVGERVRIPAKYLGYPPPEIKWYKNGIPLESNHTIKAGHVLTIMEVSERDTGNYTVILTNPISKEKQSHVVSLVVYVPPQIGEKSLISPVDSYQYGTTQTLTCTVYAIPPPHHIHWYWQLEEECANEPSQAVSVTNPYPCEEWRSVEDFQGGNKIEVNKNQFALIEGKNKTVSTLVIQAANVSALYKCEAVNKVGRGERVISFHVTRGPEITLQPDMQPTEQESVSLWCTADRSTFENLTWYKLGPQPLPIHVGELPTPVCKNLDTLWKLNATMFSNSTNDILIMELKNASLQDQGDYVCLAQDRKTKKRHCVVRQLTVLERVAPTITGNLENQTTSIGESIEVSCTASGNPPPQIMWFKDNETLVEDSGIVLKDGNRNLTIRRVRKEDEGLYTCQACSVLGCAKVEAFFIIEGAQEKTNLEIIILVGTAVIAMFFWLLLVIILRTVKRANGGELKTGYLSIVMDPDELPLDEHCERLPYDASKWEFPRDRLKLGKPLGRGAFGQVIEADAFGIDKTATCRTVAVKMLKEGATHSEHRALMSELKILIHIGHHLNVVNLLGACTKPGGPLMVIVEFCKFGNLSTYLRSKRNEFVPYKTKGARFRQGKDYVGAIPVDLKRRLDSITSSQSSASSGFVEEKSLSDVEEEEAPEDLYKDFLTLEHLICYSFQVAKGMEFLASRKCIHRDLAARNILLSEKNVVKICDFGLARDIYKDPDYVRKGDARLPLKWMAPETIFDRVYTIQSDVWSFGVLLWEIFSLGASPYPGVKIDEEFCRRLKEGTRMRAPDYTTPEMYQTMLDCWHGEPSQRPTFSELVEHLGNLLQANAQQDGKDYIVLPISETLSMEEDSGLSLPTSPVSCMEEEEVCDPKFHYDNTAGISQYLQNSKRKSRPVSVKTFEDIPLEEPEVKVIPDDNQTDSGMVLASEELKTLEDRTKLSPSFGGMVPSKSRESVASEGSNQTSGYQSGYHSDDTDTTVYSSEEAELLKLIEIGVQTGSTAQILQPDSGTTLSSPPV
PDGFRβ (cytoplasmic domain PDGFR-b protein), sequence (P09619 554-1106): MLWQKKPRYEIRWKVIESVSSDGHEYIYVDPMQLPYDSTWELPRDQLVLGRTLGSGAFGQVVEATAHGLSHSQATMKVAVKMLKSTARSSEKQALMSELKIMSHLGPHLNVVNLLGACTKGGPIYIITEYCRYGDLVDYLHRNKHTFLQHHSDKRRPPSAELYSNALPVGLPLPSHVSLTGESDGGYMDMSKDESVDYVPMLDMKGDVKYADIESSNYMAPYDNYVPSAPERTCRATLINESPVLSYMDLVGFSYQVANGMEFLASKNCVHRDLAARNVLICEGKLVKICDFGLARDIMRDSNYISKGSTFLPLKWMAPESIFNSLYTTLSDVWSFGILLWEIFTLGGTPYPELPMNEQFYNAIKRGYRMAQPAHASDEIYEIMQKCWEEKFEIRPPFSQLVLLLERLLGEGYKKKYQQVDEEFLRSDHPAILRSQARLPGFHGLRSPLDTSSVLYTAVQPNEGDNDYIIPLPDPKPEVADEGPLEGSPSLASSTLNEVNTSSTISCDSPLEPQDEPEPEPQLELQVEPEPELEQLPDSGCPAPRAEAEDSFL
VEGFR2 (cytoplasmic domain KDR protein), sequence (P35968 786-1356): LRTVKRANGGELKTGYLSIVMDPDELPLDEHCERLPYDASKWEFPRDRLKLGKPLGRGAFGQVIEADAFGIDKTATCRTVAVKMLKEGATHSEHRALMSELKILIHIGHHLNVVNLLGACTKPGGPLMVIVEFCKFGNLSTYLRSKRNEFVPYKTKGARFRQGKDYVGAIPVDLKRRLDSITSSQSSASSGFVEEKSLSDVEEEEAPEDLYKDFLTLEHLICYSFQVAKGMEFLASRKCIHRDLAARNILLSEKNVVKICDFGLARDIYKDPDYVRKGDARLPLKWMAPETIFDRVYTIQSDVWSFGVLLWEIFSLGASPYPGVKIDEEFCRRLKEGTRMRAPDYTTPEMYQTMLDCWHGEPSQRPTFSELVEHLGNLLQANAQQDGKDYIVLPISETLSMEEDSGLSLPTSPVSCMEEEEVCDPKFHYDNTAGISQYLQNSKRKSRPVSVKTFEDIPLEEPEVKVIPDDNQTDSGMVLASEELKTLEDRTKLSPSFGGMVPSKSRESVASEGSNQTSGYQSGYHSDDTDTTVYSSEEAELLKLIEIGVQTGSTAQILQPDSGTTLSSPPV
PDGFRβ, sequence (P09619 33-1106): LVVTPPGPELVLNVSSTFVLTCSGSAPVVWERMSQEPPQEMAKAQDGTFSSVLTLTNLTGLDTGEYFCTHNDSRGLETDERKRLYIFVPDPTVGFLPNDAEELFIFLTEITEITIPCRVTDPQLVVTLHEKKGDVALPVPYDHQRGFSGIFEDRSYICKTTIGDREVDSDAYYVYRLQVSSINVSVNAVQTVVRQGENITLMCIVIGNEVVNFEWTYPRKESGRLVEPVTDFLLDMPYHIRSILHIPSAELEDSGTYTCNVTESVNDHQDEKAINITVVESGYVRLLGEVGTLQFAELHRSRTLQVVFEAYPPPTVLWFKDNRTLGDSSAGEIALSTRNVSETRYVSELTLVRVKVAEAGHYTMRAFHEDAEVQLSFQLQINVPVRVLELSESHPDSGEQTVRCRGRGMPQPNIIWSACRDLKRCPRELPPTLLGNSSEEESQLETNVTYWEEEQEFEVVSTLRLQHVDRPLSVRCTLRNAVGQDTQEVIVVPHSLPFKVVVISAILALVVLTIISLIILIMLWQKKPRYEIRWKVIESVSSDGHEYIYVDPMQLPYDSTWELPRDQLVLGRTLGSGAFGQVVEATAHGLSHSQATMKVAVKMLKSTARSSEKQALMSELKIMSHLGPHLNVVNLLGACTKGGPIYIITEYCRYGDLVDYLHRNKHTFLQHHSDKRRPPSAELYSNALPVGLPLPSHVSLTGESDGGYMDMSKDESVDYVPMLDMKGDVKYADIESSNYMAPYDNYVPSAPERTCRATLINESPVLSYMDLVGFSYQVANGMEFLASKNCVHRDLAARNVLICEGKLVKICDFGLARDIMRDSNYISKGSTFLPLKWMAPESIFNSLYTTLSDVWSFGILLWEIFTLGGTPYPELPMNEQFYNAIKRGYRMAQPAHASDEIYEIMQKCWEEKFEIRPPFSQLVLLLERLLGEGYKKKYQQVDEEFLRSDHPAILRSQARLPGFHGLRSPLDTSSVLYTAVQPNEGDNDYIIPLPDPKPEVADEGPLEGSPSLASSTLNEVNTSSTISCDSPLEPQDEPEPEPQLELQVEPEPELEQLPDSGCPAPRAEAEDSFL

For the compound `Cc1cccc(NC(=O)Nc2ccc(C#Cc3ccc4nc(N)cn4n3)cc2)c1` [Example 1, 1-{4-[(2-aminoimidazo[1,2-b]pyridazin-6-yl)ethynyl]phenyl}-3-(3-methylphenyl)urea], the pIC50 – broadly, the IC50 on a negative log10 scale, so that one unit is a factor of ten – in assay [1] was 7.70; in assay [2], 7.47; in assay [3] it was 7.29; in assay [4], 6.64.
The like results for `O=C(Nc1ccc(C#Cc2ccc3nccn3n2)cc1)Nc1cccc(C(F)(F)F)c1` [Example 2, 1-[4-(imidazo[1,2-b]pyridazin-6-ylethynyl)phenyl]-3-[3-(trifluoromethyl)phenyl]urea] were, in that order, 7.33, 7.49, 6.02 and 6.34.
The like results for `Cc1cccc(NC(=O)Nc2ccc(C#Cc3ccc4nccn4n3)cc2)c1` [Example 3, 1-[4-(imidazo[1,2-b]pyridazin-6-ylethynyl)phenyl]-3-(3-methylphenyl)urea] were, in that order, 7.64, 7.10, 6.88 and 7.15.
The like results for `Nc1cn2nc(C#Cc3ccc(NC(=O)Nc4cc(C(F)(F)F)ccc4F)cc3)ccc2n1` [Example 4, 1-{4-[(2-aminoimidazo[1,2-b]pyridazin-6-yl)ethynyl]phenyl}-3-[2-fluoro-5-(trifluoromethyl)phenyl]urea] were, in that order, 7.14, 7.26, 6.37 and 6.29.
Take `O=C(Nc1ccc(C#Cc2ccc3nc(NC(=O)Nc4cc(C(F)(F)F)ccc4F)cn3n2)cc1)Nc1cc(C(F)(F)F)ccc1F` [Example 10, 1-[2-fluoro-5-(trifluoromethyl)phenyl]-3-[4-({2-[({[2-fluoro-5-(trifluoromethyl)phenyl]amino}carbonyl)amino]imidazo[1,2-b]pyridazin-6-yl}ethynyl)phenyl]urea]: the pIC50 is 5.84 in assay [1], below 5.00 in assay [2], below 5.00 in assay [3] and below 5.00 in assay [4].
Consider `CC(=O)Nc1cn2nc(C#Cc3ccc(NC(=O)Nc4cccc(C)c4)cc3)ccc2n1` [Example 11, N-(6-{[4-({[(3-methylphenyl)amino]carbonyl}amino)phenyl]ethynyl}imidazo[1,2-b]pyridazin-2-yl)acetamide], for which the negative-log IC50 (pIC50) in assay [1] is 5.50; in assay [3] it was below 5.00; in assay [4], below 5.00.
`Cc1cccc(NC(=O)Nc2ccc(C#Cc3ccc4nc(NC(=O)C5CC5)cn4n3)cc2)c1` [Example 12, N-(6-{[4-({[(3-methylphenyl)amino]carbonyl}amino)phenyl]ethynyl}imidazo[1,2-b]pyridazin-2-yl)cyclopropanecarboxamide]: the values for the pIC50 in assay [1], in assay [3] and in assay [4] were 5.88, below 5.00 and below 5.00, respectively.
For the compound `Nc1ccc(C#Cc2ccc3nc(NC(=O)Nc4ccc(F)c(Cl)c4)cn3n2)cc1` [Example 14, 1-{6-[(4-aminophenyl)ethynyl]imidazo[1,2-b]pyridazin-2-yl}-3-(3-chloro-4-fluorophenyl)urea], the negative-log IC50 (pIC50) in assay [1] is 5.77; in assay [2] it was 5.18; in assay [3] it was below 5.00; in assay [4], 4.98.
For `O=C(Nc1ccc(C#Cc2ccc3nc(NC(=O)Nc4ccc(F)c(Cl)c4)cn3n2)cc1)Nc1ccc(F)c(Cl)c1` [Example 15, 1-(3-chloro-4-fluorophenyl)-3-(4-{[2-({[(3-chloro-4-fluorophenyl)amino]carbonyl}amino)imidazo[1,2-b]pyridazin-6-yl]ethynyl}phenyl)urea], the negative-log IC50 (pIC50) in assay [1] is 5.53; in assay [2], 5.44; in assay [3], below 5.00; in assay [4], 5.44.
For `Nc1cn2nc(C#Cc3ccc(NC(=O)c4ccccc4)cc3)ccc2n1` [Example 19, N-{4-[(2-aminoimidazo[1,2-b]pyridazin-6-yl)ethynyl]phenyl}benzamide], the negative logarithm of the IC50 (pIC50) in assay [1] is 5.90; in assay [2], below 5.00; in assay [3], below 5.00; in assay [4], below 5.00.
Take `Cc1ccc(F)c(C(=O)Nc2ccc(C#Cc3ccc4nc(N)cn4n3)cc2)c1` [Example 20, N-{4-[(2-aminoimidazo[1,2-b]pyridazin-6-yl)ethynyl]phenyl}-2-fluoro-5-methylbenzamide]: the negative logarithm of the IC50 (pIC50) in assay [1] was below 5.00; in assay [2], below 5.00; in assay [3], 5.36; in assay [4], below 5.00.
Take `Cc1ccc(F)c(C(=O)Nc2cccc(C#Cc3ccc4nc(N)cn4n3)c2)c1` [Example 21, N-{3-[(2-aminoimidazo[1,2-b]pyridazin-6-yl)ethynyl]phenyl}-2-fluoro-5-methylbenzamide]: the pIC50 was 7.06 in assay [1], 6.12 in assay [2], 5.95 in assay [3] and 6.43 in assay [4].
For the compound `O=C(Nc1cccc(C#Cc2ccc3nccn3n2)c1)c1cccc(C(F)(F)F)c1` [Example 22, N-[3-(imidazo[1,2-b]pyridazin-6-ylethynyl)phenyl]-3-(trifluoromethyl)benzamide], the pIC50 in assay [1] was 6.55; in assay [2], 6.20; in assay [3] it was 5.89; in assay [4], 5.79.
`O=C(Nc1cccc(C#Cc2ccc3nccn3n2)c1)c1ccc(F)c(Cl)c1` [Example 24, 3-chloro-4-fluoro-N-[3-(imidazo[1,2-b]pyridazin-6-ylethynyl)phenyl]benzamide]: the negative-log IC50 (pIC50) in assay [1] is 6.33; in assay [2], 6.03; in assay [3], 5.84; in assay [4] it was 5.57.
As to `O=C(Nc1cccc(C#Cc2ccc3nccn3n2)c1)c1cc2ccccc2o1` [Example 25, N-[3-(imidazo[1,2-b]pyridazin-6-ylethynyl)phenyl]-1-benzofuran-2-carboxamide], the pIC50 in assay [1] was 5.79; in assay [2], 5.57; in assay [3] it was below 5.00; in assay [4], below 5.00.
Turning to `Cc1ccc(F)c(C(=O)Nc2cccc(C#Cc3ccc4nccn4n3)c2)c1` [Example 26, 2-fluoro-N-[3-(imidazo[1,2-b]pyridazin-6-ylethynyl)phenyl]-5-methylbenzamide], the pIC50 in assay [1] was 5.79; in assay [2], 5.22; in assay [3] it was 5.52; in assay [4], below 5.00.
For the compound `O=C(Nc1cccc(C#Cc2ccc3nccn3n2)c1)c1ccccc1` [Example 27, N-[3-(imidazo[1,2-b]pyridazin-6-ylethynyl)phenyl]benzamide], the negative-log IC50 (pIC50) was 5.63 in assay [1], 7.57 in assay [2], below 5.00 in assay [3] and 4.75 in assay [4].
